Here are results for seven molecules from paper PMC6199744, “Development of Chemical Proteomics for the Folateome and Analysis of the Kinetoplastid Folateome” (ACS Infectious Diseases, 2018).

Like-named read-outs stand apart in the source and are kept apart here.

What all share (format): binding
Assay [1] deals with T1, HeLa cell extract proteins (Homo sapiens, UniProt O60684).
T1 construct: endogenous in cells; host or cells: HeLa cell extract
Particulars: protein KPNA6; HeLa.

The target of assay [2] is T2, HeLa cell extract proteins (Homo sapiens, UniProt O75600).
T2 construct: endogenous in cells; host or cells: HeLa cell extract
T2 sequence (O75600 22-419): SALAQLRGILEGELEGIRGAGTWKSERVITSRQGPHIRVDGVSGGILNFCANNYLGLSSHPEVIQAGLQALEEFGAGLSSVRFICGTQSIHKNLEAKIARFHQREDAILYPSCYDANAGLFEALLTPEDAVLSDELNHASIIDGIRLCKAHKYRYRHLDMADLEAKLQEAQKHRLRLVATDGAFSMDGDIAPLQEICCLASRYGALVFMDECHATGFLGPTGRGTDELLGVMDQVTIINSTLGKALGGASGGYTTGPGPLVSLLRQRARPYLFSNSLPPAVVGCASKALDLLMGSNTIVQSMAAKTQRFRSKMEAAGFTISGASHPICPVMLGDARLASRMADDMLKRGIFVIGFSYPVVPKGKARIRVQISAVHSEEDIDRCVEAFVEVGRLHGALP
Particulars: protein GCAT; HeLa.

The target in assay [3] is T3, HeLa cell extract proteins (Homo sapiens, UniProt O75489).
T3 construct: endogenous in cells; host or cells: HeLa cell extract
Particulars: HeLa; protein NDUFS3.

The target of assay [4] is T4, HeLa cell extract proteins (Homo sapiens, UniProt P46782).
T4 construct: endogenous in cells; host or cells: HeLa cell extract
Particulars: protein RPS5; HeLa.

Assay [5] addresses T5, HeLa cell extract proteins (Homo sapiens, UniProt P60660).
T5 construct: endogenous in cells; host or cells: HeLa cell extract
T5 sequence (P60660 1-151): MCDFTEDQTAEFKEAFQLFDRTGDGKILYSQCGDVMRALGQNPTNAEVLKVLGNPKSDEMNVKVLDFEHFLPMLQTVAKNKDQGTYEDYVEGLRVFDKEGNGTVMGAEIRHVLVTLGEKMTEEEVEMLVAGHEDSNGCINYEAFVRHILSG
To be noted: HeLa; protein MYL6.

In assay [6] the target is T6, HeLa cell extract proteins (Homo sapiens, UniProt P52292).
T6 construct: endogenous in cells; host or cells: HeLa cell extract

Assay [7] addresses T7, HeLa cell extract proteins (Homo sapiens, UniProt Q9UPT8).
T7 construct: endogenous in cells; host or cells: HeLa cell extract

In assay [8] the target is T8, HeLa cell extract proteins (Homo sapiens, UniProt P53597).
T8 construct: endogenous in cells; host or cells: HeLa cell extract

The target in assay [9] is T9, HeLa cell extract proteins (Homo sapiens, UniProt P19105).
T9 construct: endogenous in cells; host or cells: HeLa cell extract
T9 sequence (P19105 1-171): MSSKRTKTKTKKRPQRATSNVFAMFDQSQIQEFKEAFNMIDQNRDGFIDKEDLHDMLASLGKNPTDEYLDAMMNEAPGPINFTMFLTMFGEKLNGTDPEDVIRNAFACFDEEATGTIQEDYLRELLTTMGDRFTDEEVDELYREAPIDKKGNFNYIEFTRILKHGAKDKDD

Assay [10] concerns the target T10, HeLa cell extract proteins (Homo sapiens, UniProt O76071).
T10 construct: endogenous in cells; host or cells: HeLa cell extract

The target in assay [11] is T11, HeLa cell extract proteins (Homo sapiens, UniProt P60891).
T11 construct: endogenous in cells; host or cells: HeLa cell extract
T11 sequence (P60891 1-318): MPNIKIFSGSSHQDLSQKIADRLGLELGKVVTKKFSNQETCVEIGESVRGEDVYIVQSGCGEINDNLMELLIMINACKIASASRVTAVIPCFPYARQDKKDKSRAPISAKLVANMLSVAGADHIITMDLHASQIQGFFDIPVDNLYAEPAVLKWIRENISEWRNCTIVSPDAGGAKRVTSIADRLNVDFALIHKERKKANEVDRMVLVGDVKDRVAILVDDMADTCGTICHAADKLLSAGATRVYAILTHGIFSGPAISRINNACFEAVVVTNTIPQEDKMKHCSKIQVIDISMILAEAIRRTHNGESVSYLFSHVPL

Assay [12] has as its target T12, HeLa cell extract proteins (Homo sapiens, UniProt Q9H9T3).
T12 construct: endogenous in cells; host or cells: HeLa cell extract
T12 sequence (Q9H9T3 1-547): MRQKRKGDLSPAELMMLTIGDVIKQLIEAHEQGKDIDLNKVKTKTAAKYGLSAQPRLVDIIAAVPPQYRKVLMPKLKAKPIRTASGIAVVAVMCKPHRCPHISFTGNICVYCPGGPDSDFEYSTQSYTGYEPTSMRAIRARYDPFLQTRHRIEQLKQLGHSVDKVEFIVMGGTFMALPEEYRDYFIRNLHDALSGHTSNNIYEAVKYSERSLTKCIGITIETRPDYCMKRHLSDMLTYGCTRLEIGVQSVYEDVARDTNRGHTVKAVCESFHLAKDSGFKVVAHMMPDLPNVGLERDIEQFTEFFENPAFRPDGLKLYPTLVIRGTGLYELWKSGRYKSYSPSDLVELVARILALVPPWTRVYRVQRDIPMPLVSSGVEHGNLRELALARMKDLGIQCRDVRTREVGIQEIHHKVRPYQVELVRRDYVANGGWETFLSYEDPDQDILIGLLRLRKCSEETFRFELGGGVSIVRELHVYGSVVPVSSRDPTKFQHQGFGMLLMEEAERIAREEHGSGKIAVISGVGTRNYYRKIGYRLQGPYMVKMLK

Assay [13] concerns the target T13, HeLa cell extract proteins (Homo sapiens, UniProt O75533).
T13 construct: endogenous in cells; host or cells: HeLa cell extract

For assay [14], the target named is T14, HeLa cell extract proteins (Homo sapiens, UniProt P68871).
T14 construct: endogenous in cells; host or cells: HeLa cell extract

Setting [15] is: HeLa, protein MRCL3 (MYOSIN REGULATORY LIGHT CHAIN MRCL3 VARIANT).
[16] abbreviates: HeLa, protein HBB (BETA-GLOBIN GENE FROM A T[…]).

T14 sequence (P68871 whole entry): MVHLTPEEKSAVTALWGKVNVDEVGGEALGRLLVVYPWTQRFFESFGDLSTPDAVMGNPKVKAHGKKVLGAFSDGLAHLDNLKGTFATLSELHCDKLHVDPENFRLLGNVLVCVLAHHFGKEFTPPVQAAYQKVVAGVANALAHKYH
T7 sequence (Q9UPT8 whole entry): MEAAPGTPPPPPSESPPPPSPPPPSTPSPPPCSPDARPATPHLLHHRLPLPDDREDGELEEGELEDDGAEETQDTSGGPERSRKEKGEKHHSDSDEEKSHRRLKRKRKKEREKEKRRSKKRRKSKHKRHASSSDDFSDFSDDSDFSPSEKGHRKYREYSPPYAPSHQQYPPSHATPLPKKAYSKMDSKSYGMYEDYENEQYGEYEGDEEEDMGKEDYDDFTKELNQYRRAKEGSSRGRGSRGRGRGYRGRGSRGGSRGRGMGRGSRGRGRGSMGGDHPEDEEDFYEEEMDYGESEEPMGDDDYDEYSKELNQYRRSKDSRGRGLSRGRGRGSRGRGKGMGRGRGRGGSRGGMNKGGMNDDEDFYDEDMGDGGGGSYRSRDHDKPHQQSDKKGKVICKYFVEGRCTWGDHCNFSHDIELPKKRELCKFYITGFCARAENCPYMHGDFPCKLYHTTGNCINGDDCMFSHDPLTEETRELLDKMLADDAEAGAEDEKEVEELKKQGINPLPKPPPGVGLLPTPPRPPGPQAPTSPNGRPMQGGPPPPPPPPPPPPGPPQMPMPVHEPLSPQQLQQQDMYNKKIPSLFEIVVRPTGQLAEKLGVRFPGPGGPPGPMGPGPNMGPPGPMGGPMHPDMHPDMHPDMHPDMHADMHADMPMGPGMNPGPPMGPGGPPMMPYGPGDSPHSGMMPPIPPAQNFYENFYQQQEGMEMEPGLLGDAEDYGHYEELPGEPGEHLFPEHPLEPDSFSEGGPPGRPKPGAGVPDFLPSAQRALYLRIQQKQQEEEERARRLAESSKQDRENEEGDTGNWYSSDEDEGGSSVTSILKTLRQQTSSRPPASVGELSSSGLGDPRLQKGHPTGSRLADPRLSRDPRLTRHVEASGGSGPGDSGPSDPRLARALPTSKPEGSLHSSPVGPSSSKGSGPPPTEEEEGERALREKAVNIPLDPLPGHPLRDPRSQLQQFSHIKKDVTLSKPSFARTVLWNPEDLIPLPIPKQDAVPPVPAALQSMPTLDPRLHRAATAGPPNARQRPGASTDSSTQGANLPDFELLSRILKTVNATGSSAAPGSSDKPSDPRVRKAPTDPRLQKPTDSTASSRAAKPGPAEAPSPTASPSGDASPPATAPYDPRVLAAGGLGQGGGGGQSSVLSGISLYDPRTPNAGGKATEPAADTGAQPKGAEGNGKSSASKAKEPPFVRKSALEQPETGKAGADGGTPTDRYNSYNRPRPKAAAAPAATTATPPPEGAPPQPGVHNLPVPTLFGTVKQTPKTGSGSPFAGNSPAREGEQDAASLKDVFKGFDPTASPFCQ
T8 sequence (P53597 41-346): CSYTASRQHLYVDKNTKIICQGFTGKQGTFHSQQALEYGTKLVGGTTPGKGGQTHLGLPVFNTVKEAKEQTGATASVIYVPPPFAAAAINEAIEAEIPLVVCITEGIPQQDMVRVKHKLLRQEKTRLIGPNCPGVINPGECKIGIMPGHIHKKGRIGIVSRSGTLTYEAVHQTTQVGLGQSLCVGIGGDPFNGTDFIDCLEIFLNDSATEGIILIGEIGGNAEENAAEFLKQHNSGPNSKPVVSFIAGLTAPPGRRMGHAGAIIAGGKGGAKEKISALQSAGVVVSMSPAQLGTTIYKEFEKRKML
T3 sequence (O75489 37-264): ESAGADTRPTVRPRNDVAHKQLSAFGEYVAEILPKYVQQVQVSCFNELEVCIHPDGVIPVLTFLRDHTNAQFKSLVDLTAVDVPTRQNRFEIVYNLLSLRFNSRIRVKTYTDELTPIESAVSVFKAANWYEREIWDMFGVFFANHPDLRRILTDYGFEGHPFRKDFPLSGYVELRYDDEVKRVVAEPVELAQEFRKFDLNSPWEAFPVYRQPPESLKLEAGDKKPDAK
T10 sequence (O76071 whole entry): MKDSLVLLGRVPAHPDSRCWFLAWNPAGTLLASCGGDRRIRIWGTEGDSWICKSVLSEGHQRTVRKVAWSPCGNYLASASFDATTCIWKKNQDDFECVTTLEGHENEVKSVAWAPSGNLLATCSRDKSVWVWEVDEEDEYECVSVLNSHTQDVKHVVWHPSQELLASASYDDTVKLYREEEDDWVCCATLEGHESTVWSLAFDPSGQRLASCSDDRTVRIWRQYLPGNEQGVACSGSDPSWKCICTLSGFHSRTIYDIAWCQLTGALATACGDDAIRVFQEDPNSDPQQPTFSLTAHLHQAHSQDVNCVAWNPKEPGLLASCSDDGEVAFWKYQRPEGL
T13 sequence (O75533 whole entry): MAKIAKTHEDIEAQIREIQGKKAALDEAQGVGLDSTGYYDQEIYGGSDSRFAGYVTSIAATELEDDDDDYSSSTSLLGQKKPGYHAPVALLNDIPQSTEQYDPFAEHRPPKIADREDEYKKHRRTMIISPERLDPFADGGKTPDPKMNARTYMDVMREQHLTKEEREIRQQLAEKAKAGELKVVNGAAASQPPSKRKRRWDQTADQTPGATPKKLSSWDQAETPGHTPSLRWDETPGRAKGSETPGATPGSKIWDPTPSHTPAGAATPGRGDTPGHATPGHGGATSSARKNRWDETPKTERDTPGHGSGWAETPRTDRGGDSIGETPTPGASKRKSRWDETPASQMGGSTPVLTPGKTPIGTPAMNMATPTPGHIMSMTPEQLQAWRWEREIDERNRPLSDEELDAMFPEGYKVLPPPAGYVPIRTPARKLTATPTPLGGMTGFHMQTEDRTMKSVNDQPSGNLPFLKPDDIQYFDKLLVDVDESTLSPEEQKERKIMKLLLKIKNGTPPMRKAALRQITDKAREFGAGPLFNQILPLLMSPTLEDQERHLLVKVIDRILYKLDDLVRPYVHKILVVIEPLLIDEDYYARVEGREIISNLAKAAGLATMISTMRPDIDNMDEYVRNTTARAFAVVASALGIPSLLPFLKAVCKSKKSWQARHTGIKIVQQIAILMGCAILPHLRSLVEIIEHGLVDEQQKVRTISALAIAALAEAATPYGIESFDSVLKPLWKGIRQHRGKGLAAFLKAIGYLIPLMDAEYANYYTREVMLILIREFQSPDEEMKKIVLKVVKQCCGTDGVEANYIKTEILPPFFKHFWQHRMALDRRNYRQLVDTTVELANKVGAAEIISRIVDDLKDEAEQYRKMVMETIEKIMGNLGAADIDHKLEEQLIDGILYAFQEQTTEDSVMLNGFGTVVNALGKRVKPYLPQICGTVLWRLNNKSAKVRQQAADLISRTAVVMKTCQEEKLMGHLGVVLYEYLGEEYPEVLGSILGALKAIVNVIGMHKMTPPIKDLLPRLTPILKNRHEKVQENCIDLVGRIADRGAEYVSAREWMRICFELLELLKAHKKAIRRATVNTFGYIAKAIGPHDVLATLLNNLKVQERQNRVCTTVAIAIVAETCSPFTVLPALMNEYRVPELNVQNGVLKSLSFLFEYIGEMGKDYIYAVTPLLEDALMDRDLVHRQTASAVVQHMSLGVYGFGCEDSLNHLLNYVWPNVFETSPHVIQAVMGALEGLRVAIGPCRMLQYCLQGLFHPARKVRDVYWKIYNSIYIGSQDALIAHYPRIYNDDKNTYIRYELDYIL

`CCCCCCOc1cccc(Cc2cnc(N)nc2N)c1` [compound 2]: the “fold changes relative to vehicle control” value in [1] worked out at 1.34; in assay [2], 1.14; in [3], 1.19; in [4], 1.1; in [5] it was 1.3.
Consider `NCCOCCOCC(=O)Nc1nc2ncc(CNc3ccc(C(=O)NC(CCC(=O)O)C(=O)O)cc3)nc2c(=O)[nH]1` (stereo not drawn) [compound 6], for which the “fold changes relative to vehicle control” value is 1.13 in assay [6] (HeLa, captured protein KPNA2); 1.1 in assay [7] (HeLa, protein ZC3H4); 1.3 in assay [8] (protein SUCLG1, HeLa); 1.43 in assay [9] (setting [15]); 0.93 in assay [10] (HeLa, protein CIAO1); 1.08 in assay [11] (HeLa, protein PRPS1). The “fold changes relative to vehicle control” value in [12] (protein ELP3, HeLa) is 0.91; in assay [13] (HeLa, protein SF3B1), 1.16; in [14] (setting [16]), 0.99.
As to `CCCCCCOc1ccc(Cc2cnc(N)nc2N)cc1` [compound 1], the “fold changes relative to vehicle control” value in assay [1] was determined as 1.16; in [2] it was 0.95; in [3], 1.05; in assay [4] it was 1.04; in assay [5], 1.14.
Turning to `Nc1nc2c(c(=O)[nH]1)N(C=O)C(CNc1ccc(C(=O)N[C@@H](CCC(=O)O)C(=O)O)cc1)CN2` (stereo partly drawn) [LEU, leucovorin], the “fold changes relative to vehicle control” value in [6] (HeLa, captured protein KPNA2) is given as 1.01; in assay [7] (HeLa, protein ZC3H4), 0.99; in [8] (protein SUCLG1, HeLa), 0.95; in [9] (setting [15]) it was 0.8; in assay [10] (HeLa, protein CIAO1), 0.94; in assay [11] (HeLa, protein PRPS1), 1.12. Moreover, the “fold changes relative to vehicle control” value in assay [12] (protein ELP3, HeLa) came out at 0.88; in [13] (HeLa, protein SF3B1), 1.02; in assay [14] (setting [16]), 1.13.
For the molecule `NCCCNc1ccc(C(=O)NC(CCC(=O)O)C(=O)O)cc1` (stereo not drawn) [compound 7], the “fold changes relative to vehicle control” value in assay [6] (HeLa, captured protein KPNA2) is 0.99; in assay [7] (HeLa, protein ZC3H4), 1.01; in assay [8] (protein SUCLG1, HeLa), 0.81; in assay [9] (setting [15]) it was 0.93; in assay [10] (HeLa, protein CIAO1), 0.91; in [11] (HeLa, protein PRPS1), 0.9. For the same molecule, the “fold changes relative to vehicle control” value in [12] (protein ELP3, HeLa) is 0.9; in assay [13] (HeLa, protein SF3B1), 1.07; in assay [14] (setting [16]), 0.87.
On to `Nc1nc2[nH]cc(CCc3ccc(C(=O)N[C@@H](CCC(=O)O)C(=O)O)cc3)c2c(=O)[nH]1` [PTX, pemetrexed], for which the “fold changes relative to vehicle control” value was 1 in assay [6]; 1.06 in [7]; 1.09 in [8]; 0.9 in assay [9]; 0.86 in [10]; 1.07 in assay [11]. The “fold changes relative to vehicle control” value in assay [12] is given as 0.72; in assay [13], 1.1; in [14], 0.94.
Regarding `Nc1nc2cccc(-c3ccccc3)c2n1Cc1ccc(Cl)c(Cl)c1` [compound 3], the “fold changes relative to vehicle control” value in assay [1] was found to be 1.15; in [2], 1.03; in assay [3], 0.86; in assay [4], 1.01; in [5], 1.11.
